Results on five compounds are retold here after patent US5446026A, “Potent non-opiate analgesic” (Advanced Peptides & Biotechnology Sciences, priority 1993, dated 1995).

Like-named read-outs stand apart in the source and are kept apart here. No end group written: not given here.

Data set [1] relates to bone. Kind of data set: uptake of calcium into bone. To be noted: under the conditions tested. From the text:
(§1) Studies of analgesia in monkeys is underway and following animal toxicity human trials should be undertaken. […] We would expect that this peptide, like other peptide analogs of naturally occurring modulatory substances, would be potent in quite low (milligram) doses in humans and should be able to alleviate quite severe pain even in these low doses. [drawing 1] R1, R2 =OH: Cholic Acid 89.010a R1 =H, R2 =OH: Chenodeoxycholic Acid 89.010b R1 =OH, R2 =H: Deoxycholic Acid [drawing 2] PEPTIDE-Pro-Arg-Thr-Asn-Thr-Gly-Ser-Gly-Thr-Pro-amide.

Data set [2] can be described thus: analgesia after subcutaneous injection (tail-flick and hot plate tests). It is filed as in vivo, rodent. Background: Thermal pain tests record how soon the animal reacts.
The conditions of data set [3]: rats; cited from earlier work.
The conditions of data set [4]: cited from earlier work.
Data set [5] addresses T1, calcitonin receptor (Homo sapiens, UniProt P30988).
T1 sequence (P30988 25-474): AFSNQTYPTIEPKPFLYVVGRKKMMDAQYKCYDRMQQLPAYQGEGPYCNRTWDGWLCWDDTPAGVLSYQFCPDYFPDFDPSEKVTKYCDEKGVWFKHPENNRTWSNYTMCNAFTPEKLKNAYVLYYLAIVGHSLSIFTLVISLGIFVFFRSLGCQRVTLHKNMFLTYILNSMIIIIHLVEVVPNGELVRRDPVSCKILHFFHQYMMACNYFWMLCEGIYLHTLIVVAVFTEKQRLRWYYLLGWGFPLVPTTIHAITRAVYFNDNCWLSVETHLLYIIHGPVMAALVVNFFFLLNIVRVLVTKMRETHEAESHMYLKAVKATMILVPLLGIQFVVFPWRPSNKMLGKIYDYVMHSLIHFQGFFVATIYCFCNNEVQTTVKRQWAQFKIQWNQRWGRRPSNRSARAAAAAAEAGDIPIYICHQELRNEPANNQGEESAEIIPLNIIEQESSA
The data set can be described thus: in vitro receptor binding, displacement of 125-I calcitonin.

Data set [6] deals with T2, 69 Kd receptor molecule (calcitonin receptor) (Homo sapiens, UniProt P30988).
T2 sequence (P30988 25-474): T1 sequence (P30988 25-474)
Kind of data set: crosslinking / SDS-PAGE in vitro receptor binding.

Data set [7] can be described thus: three classical tests of rodent analgesia (hot plate, paw pressure, tail flick). It is filed as in vivo. To be noted: paw pressure and tail flick tests (FIG. 4).
Data set [8] can be described thus: observation of rodent behavior, righting reflex, inclined plane. It is filed as in vivo.
Text: as §1

For data set [9] the following is noted: periaqueductal gray administration; cited from earlier work.

Regarding `CC(C)C[C@H](NC(=O)[C@H](CCCCN)NC(=O)CNC(=O)[C@H](CC(C)C)NC(=O)[C@@H](NC(=O)[C@@H]1CSSC[C@H](N)C(=O)N[C@@H](CO)C(=O)N[C@@H](CC(N)=O)C(=O)N[C@@H](CC(C)C)C(=O)N[C@@H](CO)C(=O)N[C@@H]([C@@H](C)O)C(=O)N1)C(C)C)C(=O)N[C@@H](CO)C(=O)N[C@@H](CCC(N)=O)C(=O)N[C@@H](CCC(=O)O)C(=O)N[C@@H](CC(C)C)C(=O)N[C@@H](Cc1c[nH]cn1)C(=O)N[C@@H](CCCCN)C(=O)N[C@@H](CC(C)C)C(=O)N[C@@H](CCC(N)=O)C(=O)N[C@H](C(=O)N[C@@H](Cc1ccc(O)cc1)C(=O)N1CCC[C@H]1C(=O)N[C@@H](CCCNC(=N)N)C(=O)N[C@H](C(=O)N[C@@H](CC(N)=O)C(=O)N[C@H](C(=O)NCC(=O)N[C@@H](CO)C(=O)NCC(=O)N[C@H](C(=O)N1CCC[C@H]1C(N)=O)[C@@H](C)O)[C@@H](C)O)[C@@H](C)O)[C@@H](C)O` [salmon calcitonin, reference compound], the “uptake of calcium into bone” value in data set [1] was “profound response”.
On to `CN1CC[C@]23c4c5ccc(O)c4O[C@H]2[C@@H](O)C=C[C@H]3[C@H]1C5` [morphine, reference compound], for which the “analgesia at two hours, the last time point tested” value in data set [2] is given as “has already returned to baseline”.
For the compound Calcitonin, the analgesic activity result in data set [3] was “extremely potent analgesic”. For the same compound, in [4] (human, in vivo), the “penetration into the brain” value was “does not penetrate into the brain” and the side effects entry is “No important side effects”. For the same compound, in [4] (terminal cancer patients, injection into the subarachnoid space), the analgesic activity result is given as “extremely potent analgesic”.
“Pro-Arg-Thr-Asn-Thr-Gly-Ser-Gly-Thr-Pro-NH2 (PRTNTGSGTP-NH2) [PD89.010b, modified calcitonin decapeptide]”: the “in vitro receptor binding as human calcitonin analog” value in data set [5] (displacement of 125-I human calcitonin (FIG. 2A)) is “potent”. For the same compound, the “in vitro receptor binding as salmon calcitonin analog” value in data set [5] (displacement of 125I salmon calcitonin (FIG. 2B)) is recorded as “weak”. Moreover, in data set [6] (at 1 μM (FIG. 3A)), the “displacement of iodinated salmon calcitonin from the 69 Kd receptor molecule” value was “completely displaces”. Moreover, in [6] (at 1 μM (FIG. 3B)), the “displacement of iodinated human calcitonin from the 69 Kd receptor molecule” value is reported as “completely displaces”. Besides, in data set [7], the analgesic responses result was “significant and profound analgesic responses”. Further, in data set [2], the “onset of analgesia compared with morphine” value is “much more rapid onset of analgesia” and the “analgesia at two hours, the last time point tested” value is reported as “still is showing significant analgesia”. Also, the “analgesia, tail-flick test” value in data set [2] (one quarter the molar equivalent of morphine (FIG. 5A)) is “profound and long lived analgesia”. For the same compound, in [2] (one quarter the molar equivalent of morphine (FIG. 5B)), the “analgesia, hot plate test” value was “profound and long lived analgesia”. In data set [8] (in vivo), the “behavior and balance on an inclined plane” value was “remained unchanged”; the righting reflex result is listed as “remained unchanged”. Also, the behavioral incapacitation effects result in data set [8] (trained observers of rodent behavior) is reported as “no obvious behavioral incapacitation effects”. Moreover, the “uptake of calcium into bone” value in data set [1] was “does not appear to enhance”.
`CC(C)C[C@H](NC(=O)[C@H](Cc1ccccc1)NC(=O)CNC(=O)CNC(=O)[C@@H](N)Cc1ccc(O)cc1)C(=O)O` [enkephalin]: the analgesia result in [9] was “weak and transient”.
